Assay results: patent US20200338115A1, “PHARMACEUTICAL COMPOSITION FOR PREVENTION OF RECURRENT URINARY TRACT INFECTION” (priority 2019, published 2020)

Tests used:
[1] = test system: peripheral WBC count; assay: Rat UTI model, low-dose PPS (Example 3): peripheral WBC count percentages; assay type: in vivo, SD rats; details: 8.5 mg/kg/day oral Day −14 to Day 0
Excerpt: (§1) The purpose of the current example is to investigate effects of a reduced dosage of PPS for preventing UTI in the rat URI model. The SD rats are randomized and grouped into a control group (N=7), an UTI model group (N=10), a normal PPS dosage group (N=10), and a reduced PPS dosage group (N=5). The UTI model group, the normal PPS dosage group, and the reduced PPS dosage group are infected with UPEC on Day 1. The method of infection and the amount of UPEC being injected to the rats of the current study are the same as the UPEC infection in Example 1. […] The control group is not infected by the UPEC or treated by PPS. Urine samples and the blood samples of the rats are collected on Day 0, 3, and 7, using the same techniques and tools as described in Example 1. The collected urine samples are diluted 10, 10^2, 10^3, 10^4, and 10^5 folds, and the diluted urine samples are cultured on BSA plates and incubated for 12 hours at 37° C. UPEC colonies on the BSA plates are counted after the incubation. In FIGS. 10 and 11, the UTI model group is denoted as “UTI”, the normal PPS dosage group is denoted as “UROpre”, and the reduced PPS dosage group is denoted as “low UROpre”.
FIG. 11 is a bar chart comparing the peripheral WBC count percentages of the control group, the reduced PPS dosage group, and the UTI model group, in accordance with an embodiment of the present disclosure. The WBC counts reflects a current urinary tract infection episode, the WBC count percentage can be a relative indicator comparing the WBC counts before the infection and after the infection. The WBC count percentages in FIG. 11 are used to examine the efficacy of the reduced PPS dosage in the rat UTI model. The WBC counts on Day 0 in the control group, the reduced PPS dosage group, and the UTI group are designated as 100% in FIG. 11. The WBC count percentages of the 3 groups are elevated on Day 1, reflecting more WBCs entering the peripheral blood after the infection. On Day 3, the WBC count percentage of the low UROpre group is about 120%, whereas the WBC count percentage of the UTI group is about 130%.

[2] = test system: uropathogenic Escherichia coli (UPEC); assay: Rat UTI model (Example 1): urine bacterial counts after oral PPS; assay type: in vivo, Sprague-Dawley (SD) rats
Excerpt: (§2) UPEC is known as the primary cause of UTI.
(§3) The rats are sacrificed at Day 14.

[3] = test system: bladder epithelium; assay: Rat UTI model (Example 1): H/E staining of bladder tissue; assay type: in vivo, Sprague-Dawley (SD) rats; details: PPS 30 mg/kg/day oral Day −14 to Day 0; rats sacrificed at Day 14
Excerpt: as §2, §3

[4] = test system: recurrent urinary tract infection (rUTI); assay: Phase II randomized controlled trial of oral PPS for prevention of rUTI (Example 2): efficacy; assay type: in vivo, human subjects
Excerpt: The current example is a multicenter, prospective, open-label, phase II, randomized controlled trial. The purpose of the current example is to investigate the effects of orally administered PPS in the prevention of rUTI in the human subjects. The study period of the current trial is 16 weeks, which is expected to cover most of the rUTI episodes.
The human subjects in the current example are screened and recruited in the OPD. Eligible patients are 20-70 year-old female patients with confirmed UTI ≥2 times in the past 6 months, or ≥3 times in the past 12 months, and had prior antibiotics treatment for previous UTI episodes(s). The eligible patients are without lower urinary tract symptoms and completely recovered from the last UTI episode. Patients with the following criteria are also excluded: allergic reaction to PPS, undergoing surgery within 24 week in a follow-up period of the current trial, participating in any intervention study 90 days before screening, bladder instillation with hyaluronic acid within 3 months before screening, pregnancy, breast feeding, upper urinary tract infection, fever >38° C., serum WBC count greater than 12,000/mm^3, urinary catheterization within 1 week, urinary tract anomalies, interstitial cystitis, urolithiasis, renal insufficiency, cancer history, immunocompromised, organ transplant history, pelvic organ prolapse stage II or higher, post-voiding residual urine more than 100 ml, stress or urge urinary incontinence, and positive urine culture during screening. 45 patients are screened for eligibility, with only 27 patients remained and 18 patients are excluded. The screening in the current trial is defined as Visit 1.
For analyzing results of the current study, all statistical analyses are performed using MedCalc Statistical Software version 19.0.3. The Mann-Whitney U test and Student's t-test are used to compare medians and means, respectively. Contingency tables are constructed for comparisons using a chi-square test and Fisher's exact test. The Kaplan—Meier method is used for the construction of survival curves. A log-rank test and Cox proportional hazard model are used to compare recurrence-free survival duration between groups. All tests are 2-tailed. A P-value <0.05 is considered significant.

[5] = in vivo
Protocol: The 27 patients remained are randomized to a PPS group (N=13) and a control group (N=14). The PPS are orally administered to the PPS group according to a continuous daily dosing regimen of 100 mg, 3 times a day for the first 8 weeks (total administered amount is 300 mg PPS per day). Then, the dosing regimen is changed to 100 mg 2 times a day for the remaining 8 weeks (total administered amount is 200 mg PPS per day). The PPS can be taken either 1 hour before or 2 hours after meal. Any forms of UTI prophylaxis or treatment, including antibiotics, hyaluronic acid instillation, cranberry, nonsteroidal anti-inflammatory drugs, or steroids, are forbidden in the study period of the current trial. […] The patients in both groups are visited every four week from the 0th week (Visit 2), the 4th week (Visit 3), the 8th week (Visit 4), the 12th week (Visit 5), to the 16th week (Visit 6), and Visit 6 is marked as the end of the current trial.
The patients are required to report relevant urinary tract symptoms to an investigator, during each of the visits. […] Information regarding adverse events, including grade of severity (according to National Cancer Institute Common Terminology Criteria for Adverse Events, version 5.0), timing, and their relationship with the medication assessed by the investigator, are also recorded at each of the visits. […]

[6] = orally administered PPS, previous studies; cited from earlier work
[7] = test system: peripheral red blood cell (RBC) counts; assay: Rat UTI model (Example 1): peripheral red blood cell counts; details: PPS 30 mg/kg/day oral Day −14 to Day 0; control, UTI model and PPS prevention groups
Protocol: The current example treats Sprague-Dawley (SD) rats with uropathogenic Escherichia coli (UPEC) to establish the rat UTI model. […] The UPEC used in the current example is ATCC®700336™, designation: J96 (serotype O4:K6), purchased from Food Industry Research and Development Institute of Taiwan. The UPEC is stored in trypticase soy agar/broth, and is centrifuged at 5,000 rpm for 10 minutes. Pellets of the UPEC after the centrifugation are dissolved in 10 mL sterile phosphate buffered saline (PBS). The cell density of the UPEC is adjusted to an optical density (OD600) of 1 to 1.1. This optical density is corresponded to the cell density of 8×10^7 to 2×10^8 colony forming units (CFU)/mL. The UPEC is then made into a 250 μL 0.9% N/S solution of 8×10^7 CFU for treating the rats.
The UTI model group and the PPS prevention group are infected with the UPEC by trans-urethral catherization on Day 1. The PPS prevention group is treated with the PPS by oral gavage with a 18G stainless-steel gavage needle attached to a 3 mL tuberculin syringe from Day −14 to Day 0. The PPS dosage for the rats in the current example is 30 mg/kg/day. […] The UPEC in the LB broths and on the LB agar plates are quantified after the incubation. […]

[8] = pH 6; cited from earlier work
[9] = test system: IL-1β; assay: Rat UTI model (Example 1): Luminex assay of peripheral blood IL-1β; assay type: in vivo, Sprague-Dawley (SD) rats; details: PPS 30 mg/kg/day oral Day −14 to Day 0; Day 3
Excerpt: as §2, §3
(§4) Luminex assays are used to evaluate peripheral blood biomarkers relevant to infection or inflammation. FIG. 6 is a bar chart comparing the Luminex assay results for IL-1β in the control group, the UTI model group, and the PPS prevention group, in accordance with an embodiment of the present disclosure. IL-1β level is relevant to a current inflammation or infection, and a higher IL-1β level indicates a more severe inflammation. […] FIG. 7 is a bar chart comparing the Luminex assay results for TNF-α in the control group, the UTI model group, and the PPS prevention group, in accordance with an embodiment of the present disclosure. TNF-α is a cytokine that promotes inflammatory responses, and a higher TNF-α level indicates a more severe inflammation in the rats.

[10] = test system: peripheral white blood cell (WBC) counts; assay: Rat UTI model (Example 1): peripheral white blood cell counts; assay type: in vivo, Sprague-Dawley (SD) rats; details: PPS 30 mg/kg/day oral Day −14 to Day 0
Excerpt: as §2, §3
FIG. 4 is a bar chart comparing peripheral white blood cell (WBC) counts in the control group, the UTI model group, and the PPS prevention group, in accordance with an embodiment of the present disclosure. The WBC counts in different groups reflect conditions of the UPEC infection in the rats: a higher WBC count may represent a more severe UPEC infection. […] The WBC counts in the UTI model group have remained as the highest among 3 groups on Day 1, Day 3, and Day 7.

[11] = test system: TNF-α; assay: Rat UTI model (Example 1): Luminex assay of peripheral blood TNF-α; assay type: in vivo, Sprague-Dawley (SD) rats; details: PPS 30 mg/kg/day oral Day −14 to Day 0; Day 3 and Day 14
Excerpt: as §2, §3, §4

[12] = test system: uropathogenic Escherichia coli (UPEC); assay: Rat UTI model, low-dose PPS (Example 3): urine bacterial counts; assay type: in vivo, SD rats; details: for urine bacterial counts compared with UTI model group: Day 3
Excerpt: as §1

In the case of pentosan polysulfate sodium [PPS], the “peripheral WBC count percentage (Day 0 = 100%)” value ([1]; Day 1) is reported as “elevated”, the “peripheral WBC count percentage (Day 0 = 100%)” value ([1]; Day 3, UTI group about 130%) is reported as “about 120%” and the “peripheral WBC count percentage (Day 0 = 100%)” value ([1]; Day 7) is reported as “about 60%”. The “peripheral WBC count percentage compared with UTI group” value ([1]; Day 7) was “significantly lower than that of the UTI group”, the “urine bacterial counts compared with UTI model group” value ([2]; PPS 30 mg/kg/day oral Day −14 to Day 0, UPEC on Day 1, Day 1, Day 3 and Day 7) was “lower than the urine bacterial counts in the UTI model group” and the urine bacterial counts ([2]; PPS 30 mg/kg/day oral gavage Day −14 to Day 0, Day 0) was “below 10^3 CFU/mL”. For the same substance, the “overall effect on UTI in the rats” value ([2]; PPS oral 30 mg/kg/day for 14 days) was “effectively reduces UTI”, the “H/E staining result of bladder tissue” value [3] was “fresh layer of accumulated epithelial cells” and the “overall UTI recurrence free survival compared with control group (Kaplan-Meier)” value ([4]; 26 patients, log-rank test p=0.0004) was “significantly higher in the PPS group than in the control group”. For the same substance, the “UTI recurrence, %” value ([4]; PPS group N = 12, 300 mg/day for 8 weeks then 200 mg/day for 8 weeks, oral, 16 weeks, control 64.3%, p <0.001) was 0%, the “lower urinary tract symptoms or positive urine analysis” value ([4]; PPS group, 16-week study period) was “none of the patients in the PPS group had lower urinary tract symptoms nor positive urine analysis” and the “efficacy in preventing rUTI in the human subjects” value ([4]; about 3.34 mg/kg/day, total 200 mg PPS per day, remaining 8 weeks) was “also therapeutically effective”. The “efficacy in preventing rUTI in the human subjects” value ([4]; less than 5 mg/kg/day, total 300 mg PPS per day (reference weight 60 kg), first 8 weeks) was “proven to be therapeutically effective”, the “protective effect in preventing rUTI in the human subjects” value ([4]; oral administration of PPS, conclusion of the trial) was “excellent protective effect” and the “adverse effects observed in the trial” value [5] was “none of the above adverse effects are observed”. The “complete blood counts, liver function tests and coagulant-related tests” value [5] was “no abnormalities”, the “adverse effect: abdominal pain” value [6] was 2% and the “adverse effect: diarrhea” value [6] was 1-14.9%. For the same substance, the “adverse effect: dizziness” value [6] was 1%, the “adverse effect: dyspepsia” value [6] was 2% and the “adverse effect: headache” value [6] was 1-2.9%. The “adverse effect: liver function abnormalities” value [6] was 1-2%, the “adverse effect: nausea” value [6] was 1.4%-7.9% and the “adverse effect: rash” value [6] was 3%. For the same substance, the “adverse effect: rectal hemorrhage” value [6] was 4%, the “peripheral RBC counts, difference among groups” value [7] was “no significant differences” and the solubility in water [8] was “up to 50%”. For the same substance, the “peripheral IL-1β level compared with UTI model group” value [9] was “significantly lower than the UTI model group”, the “peripheral WBC counts compared with UTI model group” value ([10]; Day 1, Day 3 and Day 7) was “fewer than the WBC counts in the UTI model group” and the “peripheral WBC counts, time course” value ([10]; after Day 3) was “in steady decline after Day 3”. The “peripheral TNF-α levels compared with UTI model group” value [11] was “lower TNF-α levels than the UTI model group”, the “therapeutic effect in the rat UTI model” value ([12]; 8.5 mg/kg/day orally administered PPS, 14 days) was “therapeutically effective” and the “urine bacterial counts compared with UTI model group” value ([12]; normal PPS dosage 30 mg/kg/day oral Day −14 to Day 0 (UROpre)) was “lower than the UTI model group”. The “urine bacterial counts compared with UTI model group” value ([12]; reduced PPS dosage 8.5 mg/kg/day oral Day −14 to Day 0 (low UROpre)) was “lower than the UTI model group”.
